Among the data in patent publication EP4755890A1, “OXO-TRICYCLIC DERIVATIVE AND PHARMACEUTICAL USE THEREOF” (Haisco Pharmaceutical Group Co., Ltd., priority 2023, dated 2025) are IC50 and AUC(0-t) values, retold here.

The AUC(0-t) is the area under the concentration-time curve up to a stated or last time point. Read a low AUC(0-t) as less exposure.

One data set addresses T1, CYP1A2 (Homo sapiens, UniProt P05177).
T1 construct: co-incubated with human liver microsomes; from tissue; host or cells: human liver microsomes
T1 sequence (P05177 1-516): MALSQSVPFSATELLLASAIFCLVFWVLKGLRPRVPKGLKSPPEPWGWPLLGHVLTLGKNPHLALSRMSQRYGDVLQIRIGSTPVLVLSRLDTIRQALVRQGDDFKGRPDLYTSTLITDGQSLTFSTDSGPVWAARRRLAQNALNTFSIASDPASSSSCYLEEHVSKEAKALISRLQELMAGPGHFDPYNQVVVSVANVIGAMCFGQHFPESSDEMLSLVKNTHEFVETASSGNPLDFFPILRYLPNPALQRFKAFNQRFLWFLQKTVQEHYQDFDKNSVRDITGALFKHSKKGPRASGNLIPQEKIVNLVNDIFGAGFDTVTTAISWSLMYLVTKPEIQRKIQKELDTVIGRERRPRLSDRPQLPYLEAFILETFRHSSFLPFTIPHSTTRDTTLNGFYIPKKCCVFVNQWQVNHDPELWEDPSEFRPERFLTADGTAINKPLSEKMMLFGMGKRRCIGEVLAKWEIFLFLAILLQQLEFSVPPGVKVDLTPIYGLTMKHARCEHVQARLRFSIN
Briefly: CYP450 enzyme activity inhibition assay, CYP1A2. Type of data set: in vitro ADME. As to the method:
The purpose of this study was to evaluate the effects of the test compounds on the activities of five isoenzymes (CYP1A2, CYP2C9, CYP2C19, CYP2D6, and CYP3A4) of human liver microsomal cytochrome P450 (CYP) using an in vitro testing system. The specific probe substrates for each CYP450 isoenzyme were co-incubated with human liver microsomes and the test compounds at different concentrations, and reduced nicotinamide adenine dinucleotide phosphate (NADPH) was added to initiate the reaction. After the reactions were completed, the samples were treated, and liquid chromatography-tandem mass spectrometry (LC-MS/MS) was used to quantitatively detect metabolites produced by the specific substrates. The changes in CYP enzyme activities were determined, and the IC50 values were calculated to evaluate the inhibitory potential of the test compounds against each CYP enzyme subtype.

A short description of data set [1]: Beagle dog pharmacokinetic assay. Type of data set: in vivo, Beagle dogs. Particulars: po; Beagle dog plasma, i.g. (3 mg/kg). As to the method:
7.1. Experimental animals: Male Beagle dogs, about 8-13 kg, 6 Beagle dogs/compound.
7.2. Experimental method: On the day of the experiment, the Beagle dogs were randomly grouped according to their body weights. The animals were fasted with water available for 14-18 h one day before the administration, and were fed 4 h after the administration. The animals were administered according to Table 6. Table 6. Administration information
Note: Vehicle for intravenous administration: 5% DMA + 5% Solutol + 90% Saline; and vehicle for intragastric administration: 5% DMSO + 95% (20% SBE-β-CD in Saline) (DMA: dimethylacetamide; Solutol: polyethylene glycol-15-hydroxystearate; Saline: normal saline; and MC: methylcellulose)
Before and after the administration, 1 ml of blood was taken from the jugular veins or limb veins and placed in an EDTAK2 centrifuge tube. The tube was centrifuged at 5000 rpm at 4°C for 10 min, and plasma was collected. The blood collection time points for the intravenous administration group and intragastric administration group were as follows: 0, 5 min, 15 min, 30 min, 1 h, 2 h, 4 h, 6 h, 8 h, 10 h, 12 h, 24 h, and 48 h. Before analysis and detection, all samples were stored at -80°C. The samples were analyzed quantitatively by LC-MS/MS. Table 7. Pharmacokinetic parameters of test compounds in Beagle dog plasma

The next data set has as its system HT-29 cells. Briefly: HT-29 cell proliferation inhibition assay (CellTiter-Glo). The class given is cell-based. The note with it: Homo sapiens, 96 h, 4 days, read-out: Inhibitory activity against HT-29 cell proliferation IC50. The protocol: The culture conditions for HT-29 cells were as follows: DMEM + 10% FBS + 1% penicillin-streptomycin, and the cells were cultured in an incubator with 5% CO2 at 37°C. On the first day, the HT-29 cells in the exponential growth phase were collected and plated in 96-well cell culture plates at a density of 1000 cells/well (180 µL/well). The plates were cultured overnight in an incubator with 5% CO2 at 37°C. T0 wells were plated simultaneously during the plating process. The next day, 20 µL of compounds at different concentrations were added to each well (nine compound concentration gradients, one DMSO well, and one blank well; each compound concentration was plated in triplicate), and the final concentration of DMSO in each well was 0.1%. The plates were cultured in an incubator with 5% CO2 at 37°C for 4 days. On the same day of compound addition, the T0 plate was detected using the CellTiter-Glo Kit, and the detected value was recorded as RLU0. After the culture was completed, 100 µL of detection solution (Cell Viability Assay, Promega) was added to each well. The plates were incubated at room temperature for 10 minutes with slow shaking. The chemiluminescence reading was read using a BMG microplate reader (PHERAstar FSX). The results were processed according to Formula (4) to calculate the proliferation inhibition rate of compounds at each concentration. Curve fitting was performed via a four-parameter logistic model using GraphPad Prism software, and the GI50 value (the concentration of the compound when the proliferation inhibition rate was 50%) was calculated. In the formula, RLUcompound is the readout of the drug-treated group, RLUcontrol is the average value of the compound vehicle control group, and RLUBlank is the average value of the blank control group. [formula]

A value given as a limit tells only on which side of the number the result lay.

At CYP1A2, `Cc1ncnc(C(=O)N2CCN(c3c4n(c5nc(C6=CCOCC6)nn5c3=O)C(C(=O)Nc3ccc(C(F)(F)F)cc3Cl)CCC4)C[C@H]2C)c1O` (single isomer, unassigned) [Compound 8-B] gave an IC50 greater than 30 µM.
Turning to `Cc1ncnc(C(=O)N2CCN(c3c4n(c5nc(C6=CCOCC6)nn5c3=O)[C@@H](C(=O)Nc3ccc(C(F)(F)F)cc3Cl)CCC4)CC2)c1O` [Compound 1-B], the IC50 against CYP1A2 was greater than 30 µM; with HT-29 cells, no less than 10 µM. Also, the AUC(0-t) in data set [1] came to 19900 ng·h/mL.
Regarding `Cc1ncnc(C(=O)N2[C@@H](C)CN(c3c4n(c5nc(C6=CCOCC6)nn5c3=O)[C@@H](C(=O)Nc3ccc(C(F)(F)F)cc3Cl)CCC4)C[C@@H]2C)c1O` [Compound 20-A], the results for the IC50 on CYP1A2 and in the data set with HT-29 cells were greater than 30 µM and no less than 10 µM, respectively. The compound further had an AUC(0-t) in data set [1] of 19700 ng·h/mL.
